In PubChem BioAssay (NCI) one finds TGI and GI50 data, which are given here for 20 compounds.

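A five-concentration, 48-hour dose response in 96-well plates underlies each endpoint, interpolated linearly between surrounding concentrations. The concentration for 50% growth inhibition is given as GI50. TGI marks complete inhibition of growth.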

Test systems include HCT-116 colon; M14 melanoma; 786-0 renal; CCRF-CEM leukemia; LOX IMVI melanoma; TK-10 renal; SK-MEL-2 melanoma; SN12C renal; MDA-MB-435; DU-145 prostate.
Assay in all cases: growth of human tumour cells (NCI), 48 h

`C=CCC12CC(=O)CCC1c1ccc(OC)cc1C2=O` (stereo not drawn): the TGI with HCT-116 colon, with M14 melanoma, with 786-0 renal, with CCRF-CEM leukemia, in the assay with LOX IMVI melanoma and in the assay on TK-10 renal was over 100 µM in each case. Further, the TGI with SK-MEL-2 melanoma and with SN12C renal was over 100 µM throughout.

On to `C1CSC[C@H]2COC[C@@H](CSCCS1)S2`, for which the TGI with HCT-116 colon, in the assay with MDA-MB-435, in the assay on M14 melanoma, with 786-0 renal, in the assay on DU-145 prostate and in the assay with CCRF-CEM leukemia was over 100 µM each time. For the same compound, the TGI with LOX IMVI melanoma, with TK-10 renal and in the assay with SN12C renal was over 100 µM each time.

Turning to `Cc1ccc(N2C(=O)/C(=C/c3ccc(N(CCC#N)CCC#N)cc3)N=C2COc2ccc(Cl)cc2Cl)cc1`, the TGI in the assay on HCT-116 colon, with M14 melanoma, in the assay on 786-0 renal, with CCRF-CEM leukemia, with LOX IMVI melanoma and with TK-10 renal was over 100 µM each time. The TGI with SK-MEL-2 melanoma and in the assay with SN12C renal was over 100 µM each time.

`COc1ccc(-c2cc3ccccc3[nH]c2=O)cc1OC`: the TGI in the assay with HCT-116 colon, in the assay with M14 melanoma, with 786-0 renal, with CCRF-CEM leukemia, in the assay with LOX IMVI melanoma and in the assay on TK-10 renal was over 100 µM in each case. In addition, the TGI in the assay on SK-MEL-2 melanoma and with SN12C renal was over 100 µM throughout.

With `CCC1CCCCN1CC(C(C)=O)C(c1ccccc1)c1c(O)c2ccccc2oc1=O` (stereo not drawn), the TGI with HCT-116 colon, with M14 melanoma, in the assay on 786-0 renal, in the assay on CCRF-CEM leukemia, with LOX IMVI melanoma and with TK-10 renal was over 100 µM each time. Further, the TGI in the assay on SK-MEL-2 melanoma and in the assay on SN12C renal was over 100 µM in each case.

On to `CCCCCCC(=O)C/C(CCC(=O)N(Cc1ccccc1)Cc1ccccc1)=N\NC(N)=O`, for which the TGI in the assay on HCT-116 colon, in the assay on M14 melanoma, in the assay on 786-0 renal, in the assay on CCRF-CEM leukemia, in the assay with LOX IMVI melanoma and in the assay on TK-10 renal was over 100 µM throughout. In addition, the TGI in the assay on SK-MEL-2 melanoma and in the assay with SN12C renal was over 100 µM in each case.

In the case of `O=C1CC(C2(O)C(=O)Nc3ccc([N+](=O)[O-])cc32)c2ccccc21` (stereo not drawn), the TGI is over 100 µM with HCT-116 colon; 52.2 µM in the assay on M14 melanoma; 36.6 µM in the assay with 786-0 renal; 61.1 µM in the assay on CCRF-CEM leukemia; 33 µM with LOX IMVI melanoma; over 100 µM in the assay on TK-10 renal. The TGI with SK-MEL-2 melanoma was found to be 36.5 µM; with SN12C renal it was 80.5 µM.

In the case of `CCCC(O)c1cn(-c2cccc(S(=O)(=O)O)c2)nn1` (stereo not drawn), the TGI in the assay with HCT-116 colon, with M14 melanoma, in the assay on 786-0 renal, in the assay with CCRF-CEM leukemia, in the assay with LOX IMVI melanoma and with TK-10 renal was over 100 µM in each case. Further, the TGI in the assay on SK-MEL-2 melanoma and with SN12C renal was over 100 µM throughout.

Turning to `CC1=NN(c2ccccc2)C(=O)C12[C@H](c1ccccc1)C2(C#N)C#N` (stereo partly drawn), the TGI in the assay with HCT-116 colon worked out at 12 µM; in the assay with M14 melanoma, 3.14 µM; in the assay on 786-0 renal, 6.18 µM; in the assay with CCRF-CEM leukemia, 2.78 µM; in the assay on LOX IMVI melanoma, 4.63 µM; with TK-10 renal, 25 µM. In addition, the figures for the TGI with SK-MEL-2 melanoma and with SN12C renal were 16.7 µM and 14.3 µM, respectively.

Take `O=C1OC(=O)C23CSCC12C1C=CC3O1` (stereo not drawn): the TGI in the assay on HCT-116 colon, in the assay with M14 melanoma, with 786-0 renal, in the assay on CCRF-CEM leukemia, with LOX IMVI melanoma and in the assay on TK-10 renal was over 100 µM throughout. The TGI in the assay with SK-MEL-2 melanoma and in the assay with SN12C renal was over 100 µM each time.

In the case of `O=C1C(Cl)=C(Cl)C(=O)N1c1ccc(Cl)c(Cl)c1Cl`, the TGI with HCT-116 colon is over 100 µM; in the assay with M14 melanoma, over 100 µM; in the assay with 786-0 renal, over 100 µM; in the assay with CCRF-CEM leukemia, 45.6 µM; with LOX IMVI melanoma, over 100 µM; in the assay on TK-10 renal, over 100 µM. Besides, the TGI in the assay on SK-MEL-2 melanoma and in the assay on SN12C renal was over 100 µM each time.

With `CC(=O)OCC1OC(n2c(=O)[nH]c(=O)c3n[nH]nc32)C(OC(C)=O)C(OC(C)=O)C1OC(C)=O` (stereo not drawn), the TGI with HCT-116 colon, in the assay on M14 melanoma, with 786-0 renal, with CCRF-CEM leukemia, in the assay with LOX IMVI melanoma and with TK-10 renal was over 100 µM in each case. Moreover, the TGI in the assay with SK-MEL-2 melanoma and with SN12C renal was over 100 µM throughout.

On to `Fc1ccc2c(c1)C1=C(CCC2)C(c2ccc(Cl)cc2)NC(=S)N1` (stereo not drawn), for which the GI50 was 26.1 µM in the assay with HCT-116 colon; 40.9 µM in the assay with MDA-MB-435; 40.9 µM in the assay on M14 melanoma; 25 µM in the assay with 786-0 renal; 49.1 µM in the assay on DU-145 prostate; 31.8 µM in the assay on CCRF-CEM leukemia. The figures for the GI50 in the assay on LOX IMVI melanoma, in the assay with TK-10 renal and in the assay on SN12C renal were 36 µM, 12.6 µM and 60.8 µM, respectively. The TGI with HCT-116 colon, in the assay on MDA-MB-435, in the assay with M14 melanoma, in the assay on 786-0 renal, in the assay with DU-145 prostate and with CCRF-CEM leukemia was over 100 µM in each case. For the same compound, the values for the TGI in the assay with LOX IMVI melanoma, with TK-10 renal and in the assay on SN12C renal were over 100 µM, 80.3 µM and 89.2 µM, respectively.

Take `CCc1ccc2oc(=O)ccc2c1`: the TGI with HCT-116 colon, in the assay on MDA-MB-435, in the assay on M14 melanoma, with 786-0 renal, in the assay on CCRF-CEM leukemia and in the assay with LOX IMVI melanoma was over 100 µM each time. The TGI with SK-MEL-2 melanoma and in the assay with SN12C renal was over 100 µM each time.

Regarding `CCC(C)(O)c1cn(-c2ccc(Cl)cc2)nn1` (stereo not drawn), the TGI in the assay on HCT-116 colon, with M14 melanoma, in the assay with 786-0 renal, in the assay on CCRF-CEM leukemia, in the assay with LOX IMVI melanoma and in the assay on TK-10 renal was over 100 µM throughout. Further, the TGI with SK-MEL-2 melanoma and in the assay with SN12C renal was over 100 µM each time.

Regarding `COc1cc(Cc2c(C)cc(OC)c3[nH]c4ccccc4c23)cc2c1[nH]c1ccccc12`, the GI50 in the assay with HCT-116 colon was 9.18 µM; in the assay on M14 melanoma, 5.12 µM; with 786-0 renal, 5.38 µM; in the assay on CCRF-CEM leukemia, 8.59 µM; in the assay with LOX IMVI melanoma it was 3.85 µM; in the assay on TK-10 renal, 12 µM. For the same compound, the values for the GI50 in the assay on SK-MEL-2 melanoma and with SN12C renal were 3.97 µM and 6.4 µM, respectively. In addition, the TGI is over 25 µM in the assay on HCT-116 colon; 11.8 µM in the assay on M14 melanoma; 14.2 µM in the assay on 786-0 renal; over 25 µM in the assay with CCRF-CEM leukemia; 8.6 µM with LOX IMVI melanoma; over 25 µM with TK-10 renal. For the same compound, the TGI in the assay with SK-MEL-2 melanoma stood at 11.6 µM; in the assay on SN12C renal, 22.8 µM.

For `Cc1cc(Cl)cc2c1NC(=O)C2(O)CC(=O)c1ccc(Br)cc1` (stereo not drawn), the TGI in the assay with HCT-116 colon was over 100 µM; in the assay with M14 melanoma, over 100 µM; in the assay with 786-0 renal, over 100 µM; with CCRF-CEM leukemia, 42.7 µM; in the assay with LOX IMVI melanoma it was over 100 µM; in the assay on TK-10 renal, over 100 µM. Besides, the TGI with SK-MEL-2 melanoma and in the assay on SN12C renal was over 100 µM in each case.

With `COc1ccc2nc(C)cc(Sc3nc4ccccc4s3)c2c1`, the GI50 is 1.14 µM with HCT-116 colon; 1.76 µM with MDA-MB-435; 1.92 µM in the assay on M14 melanoma; 0.562 µM in the assay with 786-0 renal; 2.2 µM with DU-145 prostate; 0.377 µM in the assay on CCRF-CEM leukemia. For the same compound, the GI50 in the assay with LOX IMVI melanoma was 1.19 µM; in the assay with TK-10 renal, 1.4 µM; with SN12C renal, 1.7 µM. For the same compound, the TGI in the assay with HCT-116 colon is 3.15 µM; with MDA-MB-435 it was 5.39 µM; in the assay on M14 melanoma it was 9.34 µM; in the assay with 786-0 renal it was 3.28 µM; with DU-145 prostate it was 7.55 µM; with CCRF-CEM leukemia, 2.65 µM. For the same compound, the figures for the TGI in the assay with LOX IMVI melanoma, in the assay on TK-10 renal and in the assay on SN12C renal were 3.37 µM, 5.47 µM and 7.06 µM, respectively.

Consider `O=C1OCC2=C1C(c1cccc(C(F)(F)F)c1)c1cc3c(cc1N2CCO)OCCO3` (stereo not drawn), for which the GI50 in the assay on HCT-116 colon was 1.42 µM; in the assay on M14 melanoma, 0.967 µM; with 786-0 renal, 1.81 µM; in the assay on DU-145 prostate, 1.54 µM; with CCRF-CEM leukemia, 1.5 µM; with LOX IMVI melanoma, 1.66 µM. For the same compound, the GI50 is over 33.3 µM in the assay on TK-10 renal, 1.99 µM in the assay on SK-MEL-2 melanoma and 2.21 µM in the assay on SN12C renal. The TGI with HCT-116 colon, with M14 melanoma, in the assay with 786-0 renal, with DU-145 prostate, with CCRF-CEM leukemia and with LOX IMVI melanoma was over 33.3 µM in each case. For the same compound, the TGI with TK-10 renal, in the assay with SK-MEL-2 melanoma and with SN12C renal was over 33.3 µM each time.

Take `CC12OC(C(=O)C13CC3)C1C(=O)c3c(O)ccc(O)c3C(=O)C12` (stereo not drawn): the GI50 in the assay with HCT-116 colon was 14.3 µM; with MDA-MB-435, 18.4 µM; in the assay with M14 melanoma, 15.3 µM; in the assay on 786-0 renal, 2.19 µM; in the assay with TK-10 renal it was 15.6 µM; with SK-MEL-2 melanoma, 33.9 µM. Further, the TGI with HCT-116 colon was 28.2 µM; in the assay on MDA-MB-435, 36.5 µM; in the assay with M14 melanoma, 30.2 µM; in the assay with 786-0 renal, 6.56 µM; in the assay on TK-10 renal, 35.2 µM; in the assay with SK-MEL-2 melanoma, over 100 µM.
